Patent US20060084628A1, “Combination therapy for treating viral infections” (priority 2004, published 2006)
Read-outs that look alike come from different tables or passages of the source.

Tests used:
[1] = Population PK analysis of plasma and urine data, healthy subjects, 1×20 mg tablet PO (ACH443-011); settings: human, in vivo
Method: The PK model created included an individual compartmental PK analysis using ADAPT-II® and Population PK analysis using an iterative two-stage population modeling technique (IT2S®) of plasma and urine data from a study of healthy subjects, n=29, 1×20 mg tablet PO (ACH443-011). FIG. 1 illustrates the PK model of Elvucitabine according to a three compartment model characterized by two absorption peaks, each associated with a lag (Tlag1 and Tlag2) time and a first order absorption rate constant (Ka1 and Ka2).
FIG. 2 illustrates an example of individual fit using a Population PK analysis (IT2S).

[2] = Hematology (ANC, white blood cell count) in 12 week study in HBV patients; type: in vivo, human
Method: Pharmacodynamics of Elvucitabine was explored by analysis of hematology (absolute neutrophil count, ANC) data obtained from a 12 week study in HBV patients. FIG. 3 illustrates the change in mean white blood cell count from baseline for three dosages of Elvucitabine (5 mg, 20 mg, and 50 mg), 100 mg 3TC, and placebo. […] FIG. 4 is a graphic representation of the change in absolute neutrophils from baseline for the same study. Table 2 provides absolute neutrophil count at 10^9/L for the three doses resulting in a baseline estimated as the mean ANC of about 4×10^9/L. A 25 percent decrease in the mean ANC corresponds to about 3×10^9/L, the threshold for the start of toxicity.

[3] = test system: HIV; experiment: In vitro IC50 for HIV; type: cell-based; settings: Human immunodeficiency virus 1
Method: (§1) From the foregoing results, a therapeutic window of Elvucitabine was identified. It has been determined that a 5 mg QD dose is effective for HBV and, therefore, a plasma AUCss/24 of 300 μg·h/L was identified as the efficacy threshold.

[4] = PK/PD relationship: toxicity threshold and therapeutic window (simulated concentrations vs observed ANC); set-up: species or system human
From the text: Pharmacokinetics and pharmacodynamics modeling was used to explore potential dosing regimens for Elvucitabine. A pharmacokinetics (PK) model was developed to describe both the plasma concentration-time data and excreted urinary amounts from previously completed studies with Elvucitabine. With the PK model in hand and pharmacodynamics (PD) results of previously completed studies, the relationship of PK and PD from an efficacy and toxicity standpoint is obtained. From the results of the PK and PD studies, a therapeutic window of Elvucitabine is defined and simulated dosing regimens ranging from 5 mg BID to 100 mg Q1 week were explored using ADAPT II® Pharmacokinetic and Pharmacodynamic Systems Analysis Software. From the simulated dosing regimen results, ten dosing regimens were identified allowing maintenance therapy with Elvucitabine at levels effective against both HIV and HBV while avoiding bone toxicity.
FIG. 5 provides a plot of the mean observed ANC and a simulated concentration-time profile for the 5 mg QD dose. As shown by the graph, the toxicity threshold is not met by the dosing regimen. As provided in FIG. 6, the 20 mg QD dose crosses the toxicity threshold at about 1008 hours.
as §1

[5] = test system: HBV; experiment: Efficacy of daily dosing for HBV; type: in vivo, human; settings: 5 mg QD dose
Method: as §1

## Nc1nc(=O)n([C@H]2C=C[C@@H](CO)O2)cc1F [Elvucitabine, 4-amino-5-fluoro-1-((2R,5 S)-5-(hydroxymethyl)-2,5-dihydrofuran-2-yl)pyrimidin-2(1H)-one]
[1]
  Vd: 1600 L
  fraction of drug excreted unchanged in urine: about 40%
[1]; distribution (λ2) half-life
  half-life: 30 h
[1]; early distribution (λ1) half-life
  half-life: 0.59 h
[1]; elimination (λz) half-life
  half-life: 175 h
[1]; po
  CLnr/F: 9.51 L/h
  Fu: 39.6%
  Vc/F: 30.6 L
  Vp1/F: 1232 L
  Vp2/F: 369 L
  oral clearance (CL/F): 16 L/h
[1]; po, 20 mg
  CL renal: 105 mL/min
  CL/F: 15.8 L/h
[1]; population PK, healthy subjects, 20 mg tablet PO, read-out: Vss/F
  Vd/F: 1630 L
[2]; 5 mg PO daily (n = 17), Week 0
  Absolute Neutrophil Count (ANC), Mean: 4.1 10^9/L
[2]; 5 mg PO daily (n = 17), Week 2
  Absolute Neutrophil Count (ANC), Mean: 3.4 10^9/L
[2]; 5 mg PO daily (n = 17), Week 4
  Absolute Neutrophil Count (ANC), Mean: 3.4 10^9/L
[2]; 5 mg PO daily (n = 17), Week 8
  Absolute Neutrophil Count (ANC), Mean: 3.5 10^9/L
[2]; 5 mg PO daily (n = 17), Week 12
  Absolute Neutrophil Count (ANC), Mean: 3.6 10^9/L
[2]; 20 mg PO daily (n = 20), Week 0
  Absolute Neutrophil Count (ANC), Mean: 3.8 10^9/L
[2]; 20 mg PO daily (n = 20), Week 2
  Absolute Neutrophil Count (ANC), Mean: 3.7 10^9/L
[2]; 20 mg PO daily (n = 20), Week 4
  Absolute Neutrophil Count (ANC), Mean: 3.2 10^9/L
[2]; 20 mg PO daily (n = 20), Week 8
  Absolute Neutrophil Count (ANC), Mean: 2.8 10^9/L
[2]; 20 mg PO daily (n = 20), Week 12
  Absolute Neutrophil Count (ANC), Mean: 2.7 10^9/L
[2]; 50 mg (highest dose), HBV patients, FIG. 3
  change in mean white blood cell count from baseline: significant decrease
[2]; 50 mg PO daily (n = 19), Week 0
  Absolute Neutrophil Count (ANC), Mean: 4.1 10^9/L
[2]; 50 mg PO daily (n = 19), Week 2
  Absolute Neutrophil Count (ANC), Mean: 3.1 10^9/L
[2]; 50 mg PO daily (n = 19), Week 4
  Absolute Neutrophil Count (ANC), Mean: 2.3 10^9/L
[2]; 50 mg PO daily (n = 19), Week 8
  Absolute Neutrophil Count (ANC), Mean: 2.2 10^9/L
[2]; 50 mg PO daily (n = 19), Week 12
  Absolute Neutrophil Count (ANC), Mean: 2.6 10^9/L
[3]; corresponds to 4.8 nM, read-out: in vitro IC50 for HIV, as concentration
  IC50: 1.08 ng/mL
[3]; read-out: in vitro IC50 for HIV
  IC50: 4.8 nM
[4]
  central compartment (plasma) Cmin correlating with onset of toxicity: ≥ 23 ng/mL
[4]; 5 mg QD, FIG. 5
  toxicity threshold (mean ANC about 3×10^9/L): not met
[4]; 20 mg QD, FIG. 6
  time at which toxicity threshold (mean ANC about 3×10^9/L) is crossed: about 1008 hours
[4]; 50 mg QD, FIG. 7
  time at which toxicity threshold (mean ANC about 3×10^9/L) is reached: 378 hours
[4]; HIV, based on in vitro IC50
  Cmin for efficacy: ≥ 2 ng/mL
[4]; from 5 mg QD effective for HBV
  plasma AUCss/24 efficacy threshold: 300 ng·h/mL
[4]; human
  Cmax in deepest (P1) compartment at onset of toxicity (ANC <3×10^9/L): > 40 μg/L
[5]
  efficacy for HBV: effective
